Source: US10150743B2, “Carboxylic acid compounds” (priority 2012, dated 2018)

Experiments:
human TLR7 = human TLR7 (Homo sapiens (Human), UniProt Q9NYK1); assay: Human TLR7 assay (SEAP reporter in HEK293); type: cell-based; conditions: SEAP induction, overnight incubation at 37° C., 0.1% DMSO; read-out: TLR7 (pEC50) (converted)
Excerpt: Recombinant human TLR7 was stably expressed in a HEK293 cell line already stably expressing the pNiFty2-SEAP reporter plasmid; integration of the reporter gene was maintained by selection with the antibiotic zeocin. The most common variant sequence of human TLR7 (represented by the EMBL sequence AF240467) was cloned into the mammalian cell expression vector pUNO and transfected into this reporter cell-line. Transfectants with stable expression were selected using the antibiotic blasticidin. In this reporter cell-line, expression of secreted alkaline phosphatase (SEAP) is controlled by an NFkB/ELAM-1 composite promoter comprising five NFkB sites combined with the proximal ELAM-1 promoter. TLR signaling leads to the translocation of NFkB and activation of the promoter results in expression of the SEAP gene. TLR7-specific activation was assessed by determining the level of SEAP produced following overnight incubation of the cells at 37° C. with the standard compound in the presence of 0.1% (v/v) dimethylsulfoxide (DMSO). Concentration dependent induction of SEAP production by compounds was expressed as the concentration of compound which produced half of the maximal level of SEAP induction for that compound (EC50).

CT26 mouse tumour cells = assay: Survival studies in CT26, a murine syngeneic colon carcinoma tumour model; type: in vivo; conditions: Balb/C mice; RT 2Gy x5 plus 30 mg/kg once a week p.o.; vs control or RT; FIG. 12
Procedure: Experiments were conducted on female mice (Balb/C genotype, at least 5 weeks old). CT26 mouse tumour cells (CRL-2638) were purchased from ATCC. CT26 mouse tumour cells (1×10^6) were implanted subcutaneously in the flank of mice on day 0. Mice in radiotherapy alone (RT) group and combination group were anesthetized and received radiation therapy (2Gy) at days 7, 8, 9, 10, and 11. Mice in combination group were also treated with a compound of Example 3 (30 mg/kg once a week) administered orally (p.o.) or Example 4 (5 mg/kg once a week) administered intravenously (i. v.) on days 7, 14, 22, and 27. Tumour volumes were assessed at least twice weekly by bilateral vernier caliper measurements. Survival period was determined by the time taken for tumours to reach 4 times the volume at the time of treatment.

human TLR8 = human TLR8 (Homo sapiens (Human), UniProt Q9NR97); assay: Human TLR8 assay (TLR8/NF-kB/SEAPorter HEK 293 Cell Line); type: cell-based; conditions: SEAP induction, overnight incubation at 37° C., 0.1% DMSO; read-out: TLR8 pEC50 (converted)
Excerpt: TLR8/NF-kB/SEAPorter™ HEK 293 Cell Line (Imgenex Corporation) is a stably co-transfected cell line which expresses full-length human TLR8 and the secreted alkaline phosphatase (SEAP) reporter gene under the transcriptional control of an NF-κB response element. TLR8 expression in this cell line has been tested by flow cytometry. Transfectants with stable expression were selected using the antibiotic blasticidin and geneticin. TLR signaling leads to the translocation of NF-κB and activation of the promoter results in expression of the SEAP gene. TLR8-specific activation was assessed by determining the level of SEAP produced following overnight incubation of the cells at 37° C. with the standard compound in the presence of 0.1% (v/v) dimethylsulfoxide (DMSO). Concentration dependent induction of SEAP production by compounds was expressed as the concentration of compound which produced half of the maximal level of SEAP induction for that compound (EC50).

Sequence of human TLR8 (Q9NR97 27-1041): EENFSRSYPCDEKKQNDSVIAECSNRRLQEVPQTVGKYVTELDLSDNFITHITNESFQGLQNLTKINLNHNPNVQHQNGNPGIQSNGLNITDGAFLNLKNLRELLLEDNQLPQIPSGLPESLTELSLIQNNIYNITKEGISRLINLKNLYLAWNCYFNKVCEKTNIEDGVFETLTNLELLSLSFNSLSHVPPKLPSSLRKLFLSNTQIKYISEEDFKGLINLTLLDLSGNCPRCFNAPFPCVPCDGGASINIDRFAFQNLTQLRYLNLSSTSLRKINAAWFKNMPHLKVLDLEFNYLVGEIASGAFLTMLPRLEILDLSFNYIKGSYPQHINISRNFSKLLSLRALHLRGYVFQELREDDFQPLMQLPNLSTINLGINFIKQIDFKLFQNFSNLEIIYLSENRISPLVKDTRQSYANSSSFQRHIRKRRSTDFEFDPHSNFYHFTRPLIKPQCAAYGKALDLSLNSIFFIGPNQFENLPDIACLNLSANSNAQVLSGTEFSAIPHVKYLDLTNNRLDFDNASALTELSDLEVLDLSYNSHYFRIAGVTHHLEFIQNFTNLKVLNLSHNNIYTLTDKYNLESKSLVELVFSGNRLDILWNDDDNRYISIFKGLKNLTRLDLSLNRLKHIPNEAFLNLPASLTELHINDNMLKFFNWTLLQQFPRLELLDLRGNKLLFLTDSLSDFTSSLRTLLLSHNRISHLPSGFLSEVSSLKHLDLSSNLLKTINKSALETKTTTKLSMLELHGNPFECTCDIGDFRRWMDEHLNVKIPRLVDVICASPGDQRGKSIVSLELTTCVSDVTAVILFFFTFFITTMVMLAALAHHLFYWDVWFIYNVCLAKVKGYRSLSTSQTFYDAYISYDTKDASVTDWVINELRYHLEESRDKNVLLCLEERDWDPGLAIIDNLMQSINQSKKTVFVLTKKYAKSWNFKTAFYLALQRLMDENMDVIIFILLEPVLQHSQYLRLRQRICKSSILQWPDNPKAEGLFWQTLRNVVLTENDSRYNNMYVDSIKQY
Sequence of human TLR7 (Q9NYK1 27-1049): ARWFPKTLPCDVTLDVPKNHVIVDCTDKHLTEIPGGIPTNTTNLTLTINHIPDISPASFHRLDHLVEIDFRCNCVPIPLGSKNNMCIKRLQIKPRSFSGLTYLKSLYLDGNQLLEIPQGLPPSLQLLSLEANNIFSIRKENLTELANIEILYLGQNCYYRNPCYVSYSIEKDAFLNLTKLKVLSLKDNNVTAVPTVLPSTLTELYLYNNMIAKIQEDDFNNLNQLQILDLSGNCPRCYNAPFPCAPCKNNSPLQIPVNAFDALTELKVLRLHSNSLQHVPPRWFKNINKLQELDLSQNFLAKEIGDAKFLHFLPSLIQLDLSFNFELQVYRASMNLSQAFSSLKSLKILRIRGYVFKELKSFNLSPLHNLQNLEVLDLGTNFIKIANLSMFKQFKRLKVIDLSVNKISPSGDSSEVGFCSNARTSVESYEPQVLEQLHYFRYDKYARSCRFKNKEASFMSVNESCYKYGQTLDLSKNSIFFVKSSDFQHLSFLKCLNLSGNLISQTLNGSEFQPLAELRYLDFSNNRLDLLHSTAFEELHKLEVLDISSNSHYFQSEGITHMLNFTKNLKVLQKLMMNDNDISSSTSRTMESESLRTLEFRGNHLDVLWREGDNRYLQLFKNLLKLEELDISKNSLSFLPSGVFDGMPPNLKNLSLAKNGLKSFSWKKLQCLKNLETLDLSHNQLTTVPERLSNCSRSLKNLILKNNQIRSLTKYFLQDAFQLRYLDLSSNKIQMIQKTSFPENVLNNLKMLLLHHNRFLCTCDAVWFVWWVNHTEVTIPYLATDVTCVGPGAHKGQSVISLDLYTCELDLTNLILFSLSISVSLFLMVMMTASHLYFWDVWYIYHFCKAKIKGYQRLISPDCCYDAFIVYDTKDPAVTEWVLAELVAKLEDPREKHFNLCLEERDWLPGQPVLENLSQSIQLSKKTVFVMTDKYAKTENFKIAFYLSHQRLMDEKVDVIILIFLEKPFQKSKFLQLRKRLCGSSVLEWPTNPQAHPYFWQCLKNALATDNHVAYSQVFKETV

`CCC[C@@H](CCO)Nc1nc(N)nc(C)c1Cc1ccc(CN(CC(=O)O)CC(F)F)cc1OC` [Example 3, (S)-2-((4-((2-amino-4-(1-hydroxyhexan-3-ylamino)-6-methylpyrimidin-5-yl)methyl)-3-methoxybenzyl)(2,2-difluoroethyl)amino)acetic acid] was tested, and the EC50 (human TLR7) was 79.4 nM, the “Survival period (time for tumours to reach 4 times the volume at treatment)” value (CT26 mouse tumour cells) was “survived significantly longer” and the EC50 (human TLR8) was over 10000 nM.
